Experimental data from the Kinase Knowledgebase extract (Sharma et al. 2016).

Target: PIK3CG (human) (UniProt P48736)
Assay: Inhibition of PIK3CG Kinase Activity

Sequence of PIK3CG (human) (P48736 whole entry, looked up): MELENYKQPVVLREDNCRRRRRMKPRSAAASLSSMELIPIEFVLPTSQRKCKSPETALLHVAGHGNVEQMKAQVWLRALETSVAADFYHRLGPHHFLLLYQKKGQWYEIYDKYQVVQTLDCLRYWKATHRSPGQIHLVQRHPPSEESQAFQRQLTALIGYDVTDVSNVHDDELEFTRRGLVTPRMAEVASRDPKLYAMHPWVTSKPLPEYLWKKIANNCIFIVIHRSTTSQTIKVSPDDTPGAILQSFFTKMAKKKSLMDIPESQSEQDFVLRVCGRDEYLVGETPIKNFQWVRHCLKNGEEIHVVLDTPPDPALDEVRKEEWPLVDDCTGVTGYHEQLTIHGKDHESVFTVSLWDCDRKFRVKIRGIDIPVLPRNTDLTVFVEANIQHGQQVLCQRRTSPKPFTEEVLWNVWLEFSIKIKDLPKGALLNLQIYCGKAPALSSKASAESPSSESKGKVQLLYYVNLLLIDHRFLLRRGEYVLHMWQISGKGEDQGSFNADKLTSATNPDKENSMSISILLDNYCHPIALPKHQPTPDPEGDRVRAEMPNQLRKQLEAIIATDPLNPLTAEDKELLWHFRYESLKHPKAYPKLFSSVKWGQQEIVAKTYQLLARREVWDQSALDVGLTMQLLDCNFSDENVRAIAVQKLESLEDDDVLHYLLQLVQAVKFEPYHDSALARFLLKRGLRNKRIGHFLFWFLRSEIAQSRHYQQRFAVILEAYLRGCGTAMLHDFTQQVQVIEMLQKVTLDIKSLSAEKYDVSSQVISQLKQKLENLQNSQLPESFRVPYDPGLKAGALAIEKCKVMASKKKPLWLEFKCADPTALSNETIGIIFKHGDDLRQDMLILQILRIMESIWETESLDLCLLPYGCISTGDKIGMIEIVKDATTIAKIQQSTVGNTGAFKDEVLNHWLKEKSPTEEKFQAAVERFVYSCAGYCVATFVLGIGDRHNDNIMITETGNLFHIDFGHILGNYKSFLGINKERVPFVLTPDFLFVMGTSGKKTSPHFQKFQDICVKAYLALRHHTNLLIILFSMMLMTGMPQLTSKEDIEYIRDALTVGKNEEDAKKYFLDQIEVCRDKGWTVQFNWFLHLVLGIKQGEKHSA

Compound | Ki [nM]
Cc1cc(-c2cncc(C(=O)NCC(C)C)c2)nc2c1C(=O)N(c1cnn(CC(F)(F)F)c1)C2(C)C | < 100
Cc1cc(-c2cnc(C)c(OCC(F)F)c2)nc2c1C(=O)N(c1cnn(CC(F)F)c1)C2(C)C | < 100
CCn1cc(N2C(=O)c3c(C)cc(-c4cncc(OC)c4)nc3C2(C)C)cn1 | < 100
COc1cncc(-c2cc(C)c3c(n2)[C@H](C)N(c2ccn(CC(C)(C)O)n2)C3=O)c1 | < 100
Cc1cc(-c2cncc(OC(F)F)c2)nc2c1C(=O)N(c1cn[nH]c1)C2(C)C | < 100
COc1cc(-c2ccc3c(n2)C(C)N(c2ccn(CC(C)(C)F)n2)C3=O)cnc1OC (centres undefined) | < 100
Cc1cc(-c2cncc(OCC(F)F)c2)nc2c1C(=O)N(c1ccn([C@H]3CCOC3)n1)C2 | < 100
COc1cc(-c2ccc3c(c2)CN(c2cnn(CC#N)c2)C3=O)cnc1OC | < 100
COc1cc(-c2ccc3c(c2)CN(c2cccc(Cn4cncn4)c2)C3=O)cnc1OC | < 100
COc1cc(-c2ccc3c(n2)C(C)N(c2cncc(C(C)(C)C#N)c2)C3=O)cnc1OC (centres undefined) | 100 to 490
COc1ncc(-c2cc(C)c3c(n2)C(C)(C)N(c2cnn(CC(F)(F)F)c2)C3=O)cc1C(=O)NC(C)CO (centres undefined) | < 100
COc1cncc(-c2cc(C)c3c(n2)C(C)(C)N(c2cnn(C4CC4)c2)C3=O)c1 | 100 to 490
COc1cc(-c2cc(C)c3c(n2)C(OC2CCC2)N(c2cnn(CC(F)(F)F)c2)C3=O)cnc1OC (centres undefined) | < 100
COc1cc(-c2ccc3c(n2)CN(c2ccc(N4CCC(CCO)CC4)nc2)C3=O)cnc1OC | < 100
Cc1cc(-c2cncc(OC(F)F)c2)nc2c1C(=O)N(c1cnn(C[C@H](C)O)c1)[C@@H]2C | < 100
COCCO[C@@H]1c2nc(-c3cnc(OC)c(OC)c3)ccc2C(=O)N1c1cnn(CC(F)(F)F)c1 | < 100
COc1cc(-c2ccc3c(n2)C(N2CC[C@@H](F)C2)N(c2cnn(CC(F)(F)F)c2)C3=O)cnc1OC (some centres undefined) | < 100
CCc1cc(N2Cc3nc(-c4cnc(OC)c(OC)c4)ccc3C2=O)nn1C | < 100
CCOc1ncc(-c2cc(C)c3c(n2)C2(CC2)N(c2cnn(CC(F)(F)F)c2)C3=O)cc1OC | < 100

Compound | Ki [nM]
Cc1cc(-c2cnc(C)c(C(=O)O)c2)nc2c1C(=O)N(c1cnn(CC(F)(F)F)c1)C2(C)C | < 100
Cc1cc(-c2cncc(NS(=O)(=O)c3ccc(F)cc3F)c2)nc2c1C(=O)N(c1cnn(CC(F)(F)F)c1)C2(C)C | < 100
CCOC1c2nc(-c3cnc(OC)c(OC)c3)ccc2C(=O)N1c1cnn(CC(F)(F)F)c1 (centres undefined) | < 100
COc1cc(-c2ccc3c(n2)CN(c2ccc(N4CCN(CCO)CC4)nc2)C3=O)cnc1OC | < 100
Cc1cc(-c2cncc(OC(F)F)c2)cc2c1C(=O)N(c1cnn(CC(F)(F)F)c1)C2C (centres undefined) | < 100
COCCOc1ncc(-c2cc(C)c3c(c2)CN(c2cnn(CC(F)(F)F)c2)C3=O)cc1OC | < 100
COc1cc(-c2ccc3c(n2)CN(c2cnn(Cc4cncn4C)c2)C3=O)cnc1OC | < 100
CCNS(=O)(=O)c1cc(-c2cc(C)c3c(n2)C(C)(C)N(c2cnn(CC(F)(F)F)c2)C3=O)cnc1OC | < 100
COc1cncc(-c2cc(C)c3c(n2)C2(CCOC2)N(c2cnn(CC(F)(F)F)c2)C3=O)c1 (centres undefined) | < 100
COc1cc(-c2ccc3c(n2)C(C)N(c2cn[nH]c2)C3=O)cnc1OC (centres undefined) | < 100
COc1cc(N2Cc3nc(-c4cnc(OC)c(OC)c4)ccc3C2=O)n[nH]1 | < 100
CCOc1cc(-c2ccc3c(c2)CN(c2cnn(CC)c2)C3=O)cnc1OC | 100 to 490
COc1cc(-c2cc(C)c3c(n2)C(O)(C2CC2)N(c2cnn(CC(F)(F)F)c2)C3=O)cnc1OC (centres undefined) | < 100
Cc1cc(-c2cncc(OCC(F)(F)F)c2)nc2c1C(=O)N(c1cnn(CC(F)(F)F)c1)[C@@H]2C | < 100
COc1cncc(-c2cc(C)c3c(n2)[C@H](C)N(c2cnn(CC(F)(F)F)c2)C3=O)c1 | < 100
CCOc1cncc(-c2cc(C)c3c(n2)C(C)(C)N(c2cn[nH]c2)C3=O)c1 | 100 to 490
COc1cc(-c2ccc3c(n2)CN(c2ccc(N4CCC(CCO)C4)nc2)C3=O)cnc1OC (centres undefined) | 100 to 490
CCOc1cncc(-c2cc(C)c3c(n2)[C@H](C)N(c2cnn(CC(F)(F)F)c2)C3=O)c1 | < 100
COc1cc(-c2ccc3c(n2)C2(CC2)N(c2cnn(CC(F)(F)F)c2)C3=O)cnc1OC | < 100

Compound | Ki [nM]
COc1cncc(-c2cc(C)c3c(n2)[C@H](C)N(c2cn[nH]c2)C3=O)c1 | < 100
COc1cc(-c2ccc3c(n2)C(C)N(c2ccn(C[C@H](C)O)n2)C3=O)cnc1OC (some centres undefined) | < 100
CCOc1ccc(N2Cc3nc(-c4cnc(OC)c(OC)c4)ccc3C2=O)cn1 | 100 to 490
COc1ncc(-c2cc(C)c3c(n2)C(C)(C)N(c2cnn(CC(F)(F)F)c2)C3=O)cc1C(=O)NCC(C)O (centres undefined) | < 100
COc1cc(-c2ccc3c(n2)C(C)(C)N(c2cn[nH]c2)C3=O)cnc1OC | < 100
Cc1cc(-c2cncc(OCC(F)F)c2)nc2c1C(=O)N(c1cnn(CC(F)(F)F)c1)C2C (centres undefined) | < 100
CCNC(=O)c1cc(-c2cc(C)c3c(n2)C(C)N(c2cnn(CC(F)F)c2)C3=O)cnc1OC (centres undefined) | < 100
COc1cncc(-c2cc(C)c3c(n2)C(C)(O)N(c2cnn(CC(F)(F)F)c2)C3=O)c1 (centres undefined) | < 100
CCOc1cc(-c2cc(C)c3c(n2)C(C)N(c2cnn(CC(F)F)c2)C3=O)cnc1C (centres undefined) | < 100
COc1cc(-c2ccc3c(n2)CN(c2ccc(N4CCCC(CO)C4)nc2)C3=O)cnc1OC (centres undefined) | < 100
Cc1cc(-c2cncc(OCC(F)(F)F)c2)nc2c1C(=O)N(c1cnn(CC#N)c1)C2(C)C | < 100
COc1cc(-c2ccc3c(n2)[C@@H](C)N(c2ccn(C[C@H](C)O)n2)C3=O)cnc1OC | < 100
Cc1cc(-c2cncc(S(=O)(=O)C(C)C)c2)nc2c1C(=O)N(c1cnn(CC(F)(F)F)c1)C2(C)C | < 100
COc1cncc(-c2cc(C)c3c(n2)CN(c2ccn([C@H]4CCOC4)n2)C3=O)c1 | < 100
Cc1cc(-c2cnc(C)c(C(=O)N(C)C)c2)nc2c1C(=O)N(c1cnn(CC(F)(F)F)c1)C2(C)C | < 100
COc1cncc(-c2cc(C)c3c(n2)CN(c2ccn(CC4CCCO4)n2)C3=O)c1 (centres undefined) | < 100
COc1ncc(-c2cc(C)c3c(n2)C(C)N(c2cnn(CC(F)(F)F)c2)C3=O)cc1C(=O)NC(C)C (centres undefined) | < 100
CCn1ccc(N2Cc3nc(-c4cncc(OC(F)F)c4)cc(C)c3C2=O)n1 | < 100

Second part, the compound after the results:

Ki [nM] | Compound
< 100 | CCn1cc(N2Cc3nc(-c4cnc(OCCOC)c(OC)c4)cc(C)c3C2=O)cn1
< 100 | COc1cc(-c2cc(C)c3c(n2)CN(c2cncc(S(C)(=O)=O)c2)C3=O)cnc1OC
< 100 | Cc1cc(-c2cncc(OCC(F)F)c2)nc2c1C(=O)N(c1cnn(CC(F)F)c1)C2
< 100 | COc1cc(-c2ccc3c(n2)CN(c2cnn(CC4CNC(=O)O4)c2)C3=O)cnc1OC (centres undefined)
< 100 | COc1ncc(-c2cc(C)c3c(n2)CN(c2ccn(C4COC4)n2)C3=O)cc1OCC(F)(F)F
< 100 | COc1cc(-c2ccc3c(n2)CN(c2cnn(C4CC4)c2)C3=O)cnc1OC
< 100 | Cc1cncc(-c2cc(C)c3c(n2)CN(c2cnn(CC#N)c2)C3=O)c1
< 100 | COc1cc(-c2cc(C)c3c(n2)C(C)(C)N(c2cnn(C[C@@H](C)O)c2)C3=O)cnc1OC
< 100 | COc1cc(-c2cc(C)c3c(n2)CN(c2ccc(CO)nc2)C3=O)cnc1OC
< 100 | Cc1cc(-c2cnc(C)c(O)c2)nc2c1C(=O)N(c1cnn(CC(F)(F)F)c1)C2
< 100 | COc1cc(-c2cc(C)c3c(n2)CN(c2nccs2)C3=O)cnc1OC
< 100 | COc1cc(-c2cc(C)c3c(n2)CN(c2cnn(CC(F)(F)F)c2)C3=O)ccc1C
100 to 490 | CCOCCOc1ncc(-c2cc(C)c3c(n2)CN(c2cnn(CC(F)(F)F)c2)C3=O)cc1OC
100 to 490 | COc1cc(-c2ccc3c(n2)CN(c2cnn(CCn4nccc4C)c2)C3=O)cnc1OC
< 100 | COc1cc(-c2ccc3c(n2)CN(c2cncc(C(C)(C)O)c2)C3=O)cnc1OC
< 100 | COCCCOc1cc(-c2cc(C)c3c(n2)CN(c2cnn(CC(F)(F)F)c2)C3=O)cnc1OC
< 100 | COc1cc(-c2ccc3c(n2)CN(c2cnn(CC(C)O)c2)C3=O)cnc1OC (centres undefined)
< 100 | CCOCCOc1cc(-c2cc(C)c3c(n2)CN(c2cnn(CC(F)(F)F)c2)C3=O)cnc1OC
< 100 | COc1cc(-c2ccc3c(n2)CN(c2cncc(C(C)(C)C#N)c2)C3=O)cnc1OC

Ki [nM] | Compound
< 100 | COc1cc(-c2cc(C)c3c(n2)CN(c2cnccn2)C3=O)cnc1OC
< 100 | COc1ncc(-c2cc(C)c3c(n2)CN(c2cc[nH]n2)C3=O)cc1OC(F)F
< 100 | Cc1cc(-c2cncc(C(=O)NC3CC3)c2)nc2c1C(=O)N(c1cnn(CC(F)(F)F)c1)C2
< 100 | CCn1ccc(N2Cc3nc(-c4cnc(OC)c(OCC5CC5)c4)cc(C)c3C2=O)n1
< 100 | COc1cc(-c2ccc3c(n2)CN(c2cnn(CC(O)C(F)(F)F)c2)C3=O)cnc1OC (centres undefined)
100 to 490 | COc1cc(-c2cc(C)c3c(n2)CN(c2cnn(C(C)(C)C#N)c2)C3=O)cnc1O
< 100 | Cc1ccc(-c2cc(C)c3c(n2)CN(c2cnn(CC(F)(F)F)c2)C3=O)cc1O
< 100 | COc1cc(-c2ccc3c(n2)CN(c2cnn(C)c2)C3=O)cnc1OC
< 100 | CCn1ccc(N2Cc3nc(-c4cnc(OC)c(OC(C)C)c4)cc(C)c3C2=O)n1
< 100 | CCOc1ncc(-c2cc(C)c3c(n2)CN(c2cnn(CC#N)c2)C3=O)cc1OC
< 100 | CCc1ncc(-c2cc(C)c3c(n2)CN(c2cnn(CC(F)(F)F)c2)C3=O)cc1OC
< 100 | COCn1cc(N2Cc3nc(-c4cnc(OC)c(OC)c4)cc(C)c3C2=O)cn1
< 100 | COc1cc(-c2cc(C)c3c(n2)[C@@](C)(OC)N(c2cnn(CC(F)(F)F)c2)C3=O)cnc1OC
< 100 | COc1ncc(-c2cc(C)c3c(n2)CN(c2ccn(C4COC4)n2)C3=O)cc1OC(C)C
< 100 | COc1cncc(-c2cc(C)c3c(n2)CN(c2ccn(C)n2)C3=O)c1
< 100 | COc1cncc(-c2cc(C)c3c(n2)CN(c2ccn(C[C@@H](C)F)n2)C3=O)c1
< 100 | COc1cc(-c2cc(C)c3c(n2)C(C)N(c2cnn(CC(F)(F)F)c2)C3=O)cnc1OC(C)C (centres undefined)
< 100 | COc1cc(-c2ccc3c(n2)CN(c2cnn(C(CO)C(F)(F)F)c2)C3=O)cnc1OC (centres undefined)
< 100 | COc1cc(-c2cc(C)c3c(n2)CN(c2ccn(C4CC4)n2)C3=O)cnc1OC
